Test results from US20260021061A1, “ARIADNE AND ANALOGS FOR THE TREATMENT OF NEUROLOGICAL AND NEUROMUSCLAR DISORDERS” (priority 2022, published 2026).

What was measured:
Cyclooxygenase COX-2 = target: T1, Cyclooxygenase COX-2 (Homo sapiens, UniProt P35354); test: SafetyScreen44 118030; assay type: biochemical; settings: 10 μM; Arachidonic acid; recombinant
T1 construct: Eurofins-Panlabs (contract screen) 118030
Method: (§1) A broad screen of 44 molecular targets (SafetyScreen44, Eurofins-Panlabs) for Ariadne were performed, which includes G protein-coupled receptors, steroid nuclear receptors, ion channels, neurotransmitter transporters, and metabolic and signaling enzymes. Only two molecular targets, 5-HT2A and 5-HT2B receptors, emerged above the positive hit threshold, defined as 50% displacement of standard radioligands by 10 uM concentration of Ariadne (FIG. 1b, and Table 1).
(§2) For species, “H”=human, “R”=rat. Test compound screened at all targets at concentration of 10 μM.

Cannabinoid CB1 = target: T2, Cannabinoid CB1 (Homo sapiens, UniProt P21554); test: SafetyScreen44 217050; assay type: binding; settings: 10 μM; [3H]SR141716A; recombinant
T2 construct: Eurofins-Panlabs (contract screen) 217050
T2 sequence (P21554 whole entry): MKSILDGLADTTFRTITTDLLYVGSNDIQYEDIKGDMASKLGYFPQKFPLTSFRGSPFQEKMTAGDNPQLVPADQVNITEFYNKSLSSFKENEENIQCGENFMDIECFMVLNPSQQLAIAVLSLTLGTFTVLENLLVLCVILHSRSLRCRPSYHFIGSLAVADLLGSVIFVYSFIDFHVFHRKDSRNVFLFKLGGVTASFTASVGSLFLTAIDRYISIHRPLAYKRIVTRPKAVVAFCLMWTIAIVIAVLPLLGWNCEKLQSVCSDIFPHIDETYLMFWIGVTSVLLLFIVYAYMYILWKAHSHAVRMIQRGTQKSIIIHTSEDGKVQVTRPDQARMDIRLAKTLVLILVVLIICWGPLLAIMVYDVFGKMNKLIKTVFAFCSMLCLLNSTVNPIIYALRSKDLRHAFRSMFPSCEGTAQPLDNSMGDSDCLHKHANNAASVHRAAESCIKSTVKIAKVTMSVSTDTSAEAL
Method: as §1, §2

Dopamine D1 = target: T3, Dopamine D1 (Homo sapiens, UniProt P21728); test: SafetyScreen44 219500; assay type: binding; settings: 10 μM; [3H]SCH-23390; recombinant
T3 construct: Eurofins-Panlabs (contract screen) 219500
Method: as §1, §2

[1] = target: T4, Cholecystokinin CCK1 (CCKA) (Homo sapiens, UniProt P32238); test: SafetyScreen44 218030; assay type: binding; settings: 10 μM; [125I]CCK-8; recombinant
T4 construct: Eurofins-Panlabs (contract screen) 218030
Method: as §1, §2

hSERT = hSERT (Homo sapiens, UniProt P31645); test: SERT-mediated cell uptake assay (fluorescence uptake inhibition); assay type: cell-based
Adrenergic alpha1A = target: T5, Adrenergic alpha1A (Homo sapiens, UniProt P35348); test: SafetyScreen44 203110; assay type: binding; settings: 10 μM; [3H]Prazosin; recombinant
T5 construct: Eurofins-Panlabs (contract screen) 203110
T5 sequence (P35348 whole entry): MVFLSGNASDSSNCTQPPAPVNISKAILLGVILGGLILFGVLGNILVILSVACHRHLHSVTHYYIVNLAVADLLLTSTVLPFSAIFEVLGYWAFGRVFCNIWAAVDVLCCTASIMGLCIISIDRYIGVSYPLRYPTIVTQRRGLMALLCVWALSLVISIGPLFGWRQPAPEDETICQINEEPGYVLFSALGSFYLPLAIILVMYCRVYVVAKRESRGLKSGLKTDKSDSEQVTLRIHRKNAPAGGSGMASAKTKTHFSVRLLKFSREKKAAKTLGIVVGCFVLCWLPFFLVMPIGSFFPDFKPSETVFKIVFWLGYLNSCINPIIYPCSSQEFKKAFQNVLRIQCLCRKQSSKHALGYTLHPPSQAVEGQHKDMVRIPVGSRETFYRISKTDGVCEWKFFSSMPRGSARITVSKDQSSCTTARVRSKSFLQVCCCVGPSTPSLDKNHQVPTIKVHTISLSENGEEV
Method: as §1, §2

Adenosine A2A = target: T6, Adenosine A2A (Homo sapiens, UniProt P29274); test: SafetyScreen44 200610; assay type: binding; settings: 10 μM; [3H]CGS-21680; recombinant
T6 construct: Eurofins-Panlabs (contract screen) 200610
T6 sequence (P29274 whole entry): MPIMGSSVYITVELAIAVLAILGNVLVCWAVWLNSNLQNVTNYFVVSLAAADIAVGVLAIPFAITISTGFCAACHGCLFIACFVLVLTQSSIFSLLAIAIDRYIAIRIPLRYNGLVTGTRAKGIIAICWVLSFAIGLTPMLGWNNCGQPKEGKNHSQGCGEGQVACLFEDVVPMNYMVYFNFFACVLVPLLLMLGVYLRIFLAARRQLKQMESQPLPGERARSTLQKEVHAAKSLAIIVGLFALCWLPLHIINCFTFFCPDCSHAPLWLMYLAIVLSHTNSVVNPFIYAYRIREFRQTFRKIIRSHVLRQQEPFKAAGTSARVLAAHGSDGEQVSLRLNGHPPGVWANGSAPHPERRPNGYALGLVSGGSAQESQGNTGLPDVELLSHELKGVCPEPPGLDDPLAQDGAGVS
Method: as §1, §2

rats = settings: rat, in vivo; cited from earlier work
[2] = tested on: Calcium Channel L-Type, Dihydropyridine; test: SafetyScreen44 214600; assay type: binding, rat; settings: 10 μM; [3H]Nitrendipine; cerebral cortex
Method: as §1, §2

rat smooth muscle = settings: compared to serotonin and (R)-DOM; cited from earlier work
humans = settings: in vivo; cited from earlier work
Opiate kappa (OP2, KOP) = target: T7, Opiate kappa (OP2, KOP) (Homo sapiens, UniProt P41145); test: SafetyScreen44 260210; assay type: binding; settings: 10 μM; [3H]Diprenorphine; recombinant
T7 construct: purchased Eurofins-Panlabs (contract screen SafetyScreen44) assay ID 260210
T7 sequence (P41145 whole entry): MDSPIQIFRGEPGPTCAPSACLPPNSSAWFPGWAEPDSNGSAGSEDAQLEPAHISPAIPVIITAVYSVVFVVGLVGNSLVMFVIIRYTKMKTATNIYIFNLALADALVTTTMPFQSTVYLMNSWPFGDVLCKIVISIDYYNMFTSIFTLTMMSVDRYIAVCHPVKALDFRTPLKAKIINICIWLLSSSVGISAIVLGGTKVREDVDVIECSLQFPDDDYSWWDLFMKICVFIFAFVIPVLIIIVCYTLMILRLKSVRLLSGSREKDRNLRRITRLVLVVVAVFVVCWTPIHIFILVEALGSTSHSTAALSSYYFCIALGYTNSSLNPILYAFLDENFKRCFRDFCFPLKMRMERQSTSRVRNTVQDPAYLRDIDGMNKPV
Method: as §1, §2

Cyclooxygenase COX-1 = target: T8, Cyclooxygenase COX-1 (Homo sapiens, UniProt P23219); test: SafetyScreen44 116030; assay type: biochemical; settings: 10 μM; Arachidonic acid; recombinant
T8 construct: Eurofins-Panlabs (contract screen) 116030
T8 sequence (P23219 24-599): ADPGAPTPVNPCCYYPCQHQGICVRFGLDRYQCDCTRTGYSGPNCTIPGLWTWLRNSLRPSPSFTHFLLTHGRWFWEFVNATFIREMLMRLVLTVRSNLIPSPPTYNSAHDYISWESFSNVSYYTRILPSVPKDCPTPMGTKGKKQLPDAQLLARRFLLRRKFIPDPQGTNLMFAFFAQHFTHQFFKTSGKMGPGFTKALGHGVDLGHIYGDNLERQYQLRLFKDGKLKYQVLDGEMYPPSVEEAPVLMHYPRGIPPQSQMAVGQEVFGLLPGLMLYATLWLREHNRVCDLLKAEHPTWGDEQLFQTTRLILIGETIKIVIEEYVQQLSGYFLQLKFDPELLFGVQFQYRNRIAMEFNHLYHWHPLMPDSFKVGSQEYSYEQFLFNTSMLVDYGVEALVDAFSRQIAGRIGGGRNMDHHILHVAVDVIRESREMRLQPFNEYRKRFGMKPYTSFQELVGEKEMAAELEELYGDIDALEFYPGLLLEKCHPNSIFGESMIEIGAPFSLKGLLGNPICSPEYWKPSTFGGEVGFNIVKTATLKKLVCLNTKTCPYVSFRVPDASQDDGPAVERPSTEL
Method: as §1, §2

Adrenergic alpha2A = target: T9, Adrenergic alpha2A (Homo sapiens, UniProt P08913); test: SafetyScreen44 203630; assay type: binding; settings: 10 μM; [3H]Rauwolscine; recombinant
T9 construct: Eurofins-Panlabs (contract screen) 203630
T9 sequence (P08913 whole entry): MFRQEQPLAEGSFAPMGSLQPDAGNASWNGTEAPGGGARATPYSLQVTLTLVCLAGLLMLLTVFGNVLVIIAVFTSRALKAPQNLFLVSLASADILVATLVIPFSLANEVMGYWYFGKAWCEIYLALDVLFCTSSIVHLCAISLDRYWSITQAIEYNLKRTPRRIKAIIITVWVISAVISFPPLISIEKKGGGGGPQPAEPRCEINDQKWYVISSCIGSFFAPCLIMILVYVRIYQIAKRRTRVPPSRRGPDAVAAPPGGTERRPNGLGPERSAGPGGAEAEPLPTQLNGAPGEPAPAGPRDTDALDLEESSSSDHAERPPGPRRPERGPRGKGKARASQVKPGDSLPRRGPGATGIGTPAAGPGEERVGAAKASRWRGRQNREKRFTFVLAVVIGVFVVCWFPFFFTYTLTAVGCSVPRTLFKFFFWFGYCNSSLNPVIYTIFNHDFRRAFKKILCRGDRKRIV
Method: as §1, §2

Histamine H1 = target: T10, Histamine H1 (Homo sapiens, UniProt P35367); test: SafetyScreen44 239610; assay type: binding; settings: 10 μM; [3H]Pyrilamine; recombinant
T10 construct: purchased Eurofins-Panlabs (contract screen SafetyScreen44) assay ID 239610
T10 sequence (P35367 whole entry): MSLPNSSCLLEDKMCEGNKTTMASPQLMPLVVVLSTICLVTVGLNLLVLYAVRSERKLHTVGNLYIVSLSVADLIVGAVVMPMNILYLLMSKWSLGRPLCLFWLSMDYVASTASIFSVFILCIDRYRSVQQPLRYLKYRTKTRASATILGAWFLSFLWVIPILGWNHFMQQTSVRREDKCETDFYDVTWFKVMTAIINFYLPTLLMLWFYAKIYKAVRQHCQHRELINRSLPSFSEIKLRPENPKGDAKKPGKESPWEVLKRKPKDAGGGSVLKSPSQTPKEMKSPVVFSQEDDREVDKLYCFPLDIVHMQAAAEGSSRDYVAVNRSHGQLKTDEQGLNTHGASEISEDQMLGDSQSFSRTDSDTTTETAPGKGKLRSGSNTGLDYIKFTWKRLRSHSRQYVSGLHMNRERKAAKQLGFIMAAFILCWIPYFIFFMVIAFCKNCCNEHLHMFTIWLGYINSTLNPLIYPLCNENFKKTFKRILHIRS
Method: as §1, §2

Glutamate, NMDA, Agonism = test: SafetyScreen44 232810; assay type: binding, rat; settings: 10 μM; [3H]CGP-39653; cerebral cortex
Method: as §1, §2

Cannabinoid CB2 = target: T11, Cannabinoid CB2 (Homo sapiens, UniProt P34972); test: SafetyScreen44 217100; assay type: binding; settings: 10 μM; [3H]WIN-55, 212-2; recombinant
T11 construct: Eurofins-Panlabs (contract screen) 217100
Method: as §1, §2

Opiate μ (OP3, MOP) = target: T12, Opiate μ (OP3, MOP) (Homo sapiens, UniProt P35372); test: SafetyScreen44 260410; assay type: binding; settings: 10 μM; [3H]Diprenorphine; recombinant
T12 construct: purchased Eurofins-Panlabs (contract screen SafetyScreen44) assay ID 260410
Method: as §1, §2

Endothelin ETA = target: T13, Endothelin ETA (Homo sapiens, UniProt P25101); test: SafetyScreen44 224010; assay type: binding; settings: 10 μM; [125I]Endothelin-1; recombinant
T13 construct: Eurofins-Panlabs (contract screen) 224010
T13 sequence (P25101 21-427): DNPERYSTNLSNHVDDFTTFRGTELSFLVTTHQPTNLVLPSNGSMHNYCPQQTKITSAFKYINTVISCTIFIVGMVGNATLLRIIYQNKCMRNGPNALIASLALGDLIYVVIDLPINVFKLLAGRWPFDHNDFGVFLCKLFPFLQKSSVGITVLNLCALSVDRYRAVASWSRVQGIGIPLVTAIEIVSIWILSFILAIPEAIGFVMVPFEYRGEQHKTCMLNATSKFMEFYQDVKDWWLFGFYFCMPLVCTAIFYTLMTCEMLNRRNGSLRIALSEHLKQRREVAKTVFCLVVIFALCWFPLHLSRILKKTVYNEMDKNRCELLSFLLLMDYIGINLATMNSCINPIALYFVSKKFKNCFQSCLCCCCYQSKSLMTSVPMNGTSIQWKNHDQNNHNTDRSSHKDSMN
Method: as §1, §2

Muscarinic M2 = target: T14, Muscarinic M2 (Homo sapiens, UniProt P08172); test: SafetyScreen44 252710; assay type: binding; settings: 10 μM; [3H]N-Methylscopolamine; recombinant
T14 construct: purchased Eurofins-Panlabs (contract screen SafetyScreen44) assay ID 252710
Method: as §1, §2

hDAT = hDAT (Homo sapiens, UniProt Q01959); test: DAT fluorescence uptake inhibition; assay type: cell-based
Sequence of hDAT (Q01959 whole entry): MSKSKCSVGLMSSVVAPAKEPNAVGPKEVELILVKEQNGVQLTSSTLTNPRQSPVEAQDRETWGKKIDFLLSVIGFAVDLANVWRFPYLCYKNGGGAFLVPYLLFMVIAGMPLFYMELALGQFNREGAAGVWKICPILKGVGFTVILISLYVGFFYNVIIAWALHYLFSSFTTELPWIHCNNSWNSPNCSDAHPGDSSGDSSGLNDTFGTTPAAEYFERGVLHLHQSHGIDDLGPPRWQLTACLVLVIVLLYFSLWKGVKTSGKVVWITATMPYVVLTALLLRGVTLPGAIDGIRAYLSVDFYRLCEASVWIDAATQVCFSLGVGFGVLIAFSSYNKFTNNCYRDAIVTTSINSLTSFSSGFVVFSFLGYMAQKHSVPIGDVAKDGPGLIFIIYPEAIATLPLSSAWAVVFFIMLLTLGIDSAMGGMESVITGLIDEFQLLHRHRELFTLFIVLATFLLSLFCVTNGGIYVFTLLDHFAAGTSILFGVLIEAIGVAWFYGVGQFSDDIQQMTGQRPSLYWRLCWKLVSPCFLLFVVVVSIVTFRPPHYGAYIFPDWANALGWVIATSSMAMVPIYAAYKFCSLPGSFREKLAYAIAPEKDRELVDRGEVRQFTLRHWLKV

C57BL/6J mice = test: Open field locomotion in mice; assay type: in vivo, mouse
patients = settings: cited from earlier work
[3] = tested on: auxilin knockout (KO) mice; test: Open field test in auxilin KO mouse model of Parkinson's Disease; assay type: in vivo; settings: Aux-KO mice; 10 mg/kg intraperitoneal; confounded by learning effects
5-HT2A = 5-HT2A (Homo sapiens, UniProt P28223); test: Calcium flux assay; assay type: cell-based
Sequence of 5-HT2A (P28223 whole entry): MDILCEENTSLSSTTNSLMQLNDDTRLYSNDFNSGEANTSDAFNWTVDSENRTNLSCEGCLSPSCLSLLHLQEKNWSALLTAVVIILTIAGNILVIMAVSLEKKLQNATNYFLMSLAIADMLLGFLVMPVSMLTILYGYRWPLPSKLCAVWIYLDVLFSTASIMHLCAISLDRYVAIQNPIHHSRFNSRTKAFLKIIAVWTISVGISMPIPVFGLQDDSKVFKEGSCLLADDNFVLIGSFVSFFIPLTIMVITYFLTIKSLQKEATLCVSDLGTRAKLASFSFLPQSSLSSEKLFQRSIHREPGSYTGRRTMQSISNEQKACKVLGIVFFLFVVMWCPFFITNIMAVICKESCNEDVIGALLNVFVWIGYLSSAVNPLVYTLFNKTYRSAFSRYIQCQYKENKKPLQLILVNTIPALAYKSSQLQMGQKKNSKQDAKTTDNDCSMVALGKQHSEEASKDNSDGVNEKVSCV
Method: Therefore, an orthogonal assay measuring calcium flux was also performed for the 5-HT2 receptors (Klein et al., 2020).

mice = test: Elevated plus maze (EPM); assay type: in vivo, mouse; settings: 30 minutes and 4 hours post single s.c. injection
Method: FIGS. 7A-D Effect of Ariadne in behavioral conflict paradigms. (a) Survival plot of effect of (R)-Ariadne (10 mg/kg) on latency to feed in the novelty suppressed feeding (NSF) test 7 days post a single drug administration. (b) Effect of 6 mg/kg and 10 mg/kg (R)-Ariadne on latency to feed in the novelty suppressed feeding (NSF) test 7 days post a single drug administration. (c) Effect of (R)-Ariadne and (±)-DOPR on the time spent in the open vs closed arms and (d) corresponding arm entries 30 minutes and 4 hours post a single subcutaneous injection.

## CCC(N)Cc1cc(OC)c(C)cc1OC (racemic) [Compound 32, 1-(2,5-dimethoxy-4-methylphenyl)butan-2-amine]
Cyclooxygenase COX-2
  % Response: −2%
Cannabinoid CB1
  % Response: 1%
Dopamine D1
  % Response: 7%
[1]
  % Response: 3%
hSERT
  IC50: > 50 µM
Adrenergic alpha1A
  % Response: 24%
Adenosine A2A
  % Response: 10%
rats
  substitution for MDMA stimulus: full substitution
  substitution in LSD trained animals: substituted responding
[2]
  % Response: −13%
Rat smooth muscle
  serotonergic-like effect: weak serotonergic-like effect
humans
  hallucinogenic effects in humans: lack the hallucinogenic effects
Opiate kappa (OP2, KOP)
  % Response: 3%
Cyclooxygenase COX-1
  % Response: −31%
Adrenergic alpha2A
  % Response: 34%
Histamine H1
  % Response: 13%
Glutamate, NMDA, Agonism
  % Response: −5%
Cannabinoid CB2
  % Response: −7%
Opiate μ (OP3, MOP)
  % Response: −11%
Endothelin ETA
  % Response: −6%
Muscarinic M2
  % Response: 0%
hDAT
  IC50: > 50 µM

## CC[C@@H](N)Cc1cc(OC)c(C)cc1OC [(R)-Ariadne]
C57BL/6J mice; 10 mg/kg, s.c. (peak HTR dose)
  general locomotion in novel environment: minor sedative effect
C57BL/6J mice; 30 mg/kg
  general locomotion in novel environment: marked sedation
C57BL/6J mice; open field
  time in the center of the arena: trend for spending less time in the center
patients; 100 mg per day
  symptoms in subjects with Parkinson's disease: nearly complete remission of symptoms
patients; 50-100 mg per day
  psychotic symptoms in schizophrenia and bipolar disorder: rapid remission of psychotic symptoms
patients; up to and beyond 100 mg per day, including patients with psychosis
  hallucinogenic effects: lack of hallucinogenic effects
[3]
  overall locomotory deficits in the open field: partially rescued
5-HT2A
  EC50: 0.03 µM
5-HT2A; read-out: Emax relative to 5-HT, calcium flux
  Emax: 96%
mice
  entries and time spent in the open arms: acute anxiogenic-like effect
